Results on ten compounds are retold here after patent publication US8222299B2, “Organosulfur prodrugs for the prevention and treatment of infectious diseases” (Allium Vitalis Incorporated, priority 2003, dated 2012).

The structures appear in SMILES notation. Entries after “also recorded” stand apart in the source; their conditions may differ.

For series [1] the following is noted: cited from earlier work; for Reaction in Blood Half-life / Reaction in Blood Product (moles): in vitro.
Another series deals with neutrophil influx. The settings on record: intravenous, 150 mg/kg; cited from earlier work.
A short description of the next series: pKa and ionization. The format is physicochemical. The settings on record: pH of approximately 7.
A further series has as its system 13 types of bacteria. The following applies: cited from earlier work.
For series [2] the following is noted: mice, cited from earlier work; for protection from acetaminophen poisoning, pretreatment: SAMC 100 mg/kg.
Series [3] is described as follows: Non-enzymatic reaction of AllylSH with H2O2. The format is physicochemical. An excerpt: Thiols are known to have various antioxidant properties, including the ability to scavenge (H2O2), although the specific ability of allyl mercaptan in this regard may not have been previously investigated.
The next series deals with Sendai virus. The settings on record: post treatment one hour after infection, measured 24 hours post infection; cited from earlier work.
Another series relates to uninfected cells. The following applies: 0.01 mM.
A further series deals with cells. The following applies: in vitro exposure; cited from earlier work.
The conditions of series [4]: chemiluminescense assay; cited from earlier work.
The subject of the next series is SARS coronavirus. The series can be described thus: microbe, parasite or virus in culture. The settings on record: Severe acute respiratory syndrome coronavirus, read-out: reduction in the viability of infected cells.
For series [5] the following is noted: cited from earlier work.
The subject of the next series is prostaglandin synthase. The settings on record: 50 uM/L; cited from earlier work.
The next series deals with CYP2D6 (Homo sapiens, UniProt P10635). The settings on record: cited from earlier work.
CYP2D6, sequence (P10635 whole entry): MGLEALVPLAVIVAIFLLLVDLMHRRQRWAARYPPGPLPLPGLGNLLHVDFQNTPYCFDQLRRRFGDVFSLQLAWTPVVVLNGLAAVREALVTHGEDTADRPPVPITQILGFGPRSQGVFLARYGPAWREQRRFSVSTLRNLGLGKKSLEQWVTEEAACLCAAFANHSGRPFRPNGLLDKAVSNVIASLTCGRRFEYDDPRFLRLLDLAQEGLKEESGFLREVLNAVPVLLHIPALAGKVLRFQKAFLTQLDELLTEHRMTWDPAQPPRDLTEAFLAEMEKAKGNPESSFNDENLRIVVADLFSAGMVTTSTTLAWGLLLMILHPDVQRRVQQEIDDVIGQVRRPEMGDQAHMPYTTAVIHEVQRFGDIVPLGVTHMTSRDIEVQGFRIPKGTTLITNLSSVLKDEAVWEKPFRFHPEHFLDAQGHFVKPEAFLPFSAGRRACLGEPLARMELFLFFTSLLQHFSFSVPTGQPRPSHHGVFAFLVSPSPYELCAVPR
For series [6] the following is noted: compounds from Allium grayi Regel and Allium fistulosum; cited from earlier work.

In the case of `C=CCS[S+]([O-])CC=C` (stereo not shown) [Allicin, DiAllylThioSulfinate], the “time for metabolism to allyl-mercaptan” value in [1] (blood cells exposed to allicin) is recorded as “less than one minute”. In [1], the “Reaction in Blood Half-life” value is recorded as less than 1 min and the “Reaction in Blood Product (moles)” value is “AllylSH (1.6)”.

Consider `CC(=O)N[C@@H](CS)C(=O)O` [NAC, N-acetylcysteine], for which the “IL-1 induced neutrophil influx into lung lavages” value in the series on neutrophil influx is “inhibited”.

Take `N[C@@H](CS)C(=O)O` [Cys, Cysteine]: the fraction ionized result in “pKa and ionization” is on record as “approximately 3%”.

Take `O=C(N[C@H](CO)[C@H](O)c1ccc([N+](=O)[O-])cc1)C(Cl)Cl` [Chloramphenicol]: the species inhibited in the series on 13 types of bacteria (13 types of bacteria) is given as 12/13. Also, in the series with 13 types of bacteria, the “average zone of inhibition” value is on record as 20 mm.

As to `C=CCSC[C@H](N)C(=O)O` [S-allylcysteine], the “protection from acetaminophen poisoning, pretreatment” value in series [2] is reported as “not nearly as effective”.

In the case of `C=CCS` [AllylSH, AllylThiol], the “reaction with H2O2 at low concentration” value in series [3] (initial 10 mM H2O2 and 0.85 mM Allyl-SH, FIG. 1) is “can reduce hydrogen peroxide”.

In the case of `N[C@@H](CCC(=O)N[C@@H](CS)C(=O)NCC(=O)O)C(=O)O` [Glutathione], the “reduction of the level of infection” value in the series on Sendai virus is listed as 95%.

As for `C=CCSSC[C@H](N)C(=O)O` [SAMC, S-AllylMercaptoCysteine], in the series with uninfected cells, the “toxicity to uninfected cells” value was “no toxicity”. In addition, in series [2], the “protection from acetaminophen poisoning, pretreatment” value is “protect mice”. In addition, in [2] (single dose 200 mg/kg shortly after exposure), the “protection from acetaminophen poisoning, post treatment” value is on record as “protective”. For the same compound, in the series on cells, the “total glutathione level of cells” value is reported as “significantly increase; also recorded: significant increase”. Further, the “antioxidant or pro-oxidant activity” value in [4] is reported as “by far the most effective antioxidant”. Also, the “Reaction in Blood Product (moles)” value in series [1] was “AllylSH (0.8)”. For the same compound, in the series on SARS coronavirus, the inhibition at 10 µM is 6%.

Consider `C=CCSSCC=C` [DADS, DiAllylDisulfide], for which the “water solubility in words” value in [5] is listed as “poor water solubility”. Besides, in the series with prostaglandin synthase, the “inhibition of prostaglandin synthase” value is given as 69%. In addition, the “reaction with H2O2 at high concentration” value in [3] (initial 40 mM H2O2 and 0.85 mM Allyl-SH, FIG. 2) is “further oxidized to Allicin”. In [1], the “Reaction in Blood Half-life” value is on record as 60 min and the “Reaction in Blood Product (moles)” value is recorded as “AllylSH (0.8)”. Besides, the “activity of the enzymes” value on CYP2D6 is recorded as “up to 121 pmol/min/pmol CYP2D6”. Moreover, the “conversion of DADS to allicin” value on CYP2D6 (in 30 minutes) is given as “approximately 30%”.

For the compound `CCCS[S+]([O-])CCC` (stereo not shown) [CH3(CH2)2S˜SO(CH2)2CH3], the nematicidal activity entry in [6] is listed as “most effective compound found”.
